Data taken from patent publication US9365559B2, “Crystal form of Dabrafenib and preparation method of use thereof” (Hangzhou Pushai Pharmaceutical Technology Co., LTD., priority 2013, dated 2016).
“Also recorded” adds a separate entry of the source.

Columns and labels:
Type in all cases: physicochemical
[1] = Dynamic vapor sorption (DVS) hygroscopicity; settings: from DVS, 20~80% RH
Procedure: The dynamic vapor sorption analysis (DVS) data are collected by TA Instruments Q5000 TGA; the instrument control software is Thermal Advantage and the analysis software is Universal Analysis. Generally, take 1˜10 mg of the sample and place it in a platinum pan, and the weight changes of the sample are recorded during the course of the relative humidity changing from 0% to 80% and then to 0%. According to the specifics of the samples, different adsorption and desorption steps may be used.
The hygroscopicity is obtained by DVS testing of the weight changes between 20%-80% RH.

[2] = Storage stability test (XRPD before and after storing); settings: for Storage stability (crystal form by XRPD): stored 3 months in desiccator at room temperature; for Storage stability (crystal form by XRPD) / Storage stability (crystal form): room temperature-97% RH, -75% RH, -44% RH or oven of 40° C.; for Storage stability (crystal form): stored for a long time in desiccator at room temperature
Excerpt: The storage stability test is: storing the sample under constant conditions (i.e. constant humidity or constant temperature) for a certain time, and then comparing the XRPDs before and after storing.

[3] = Crystal form stability in oral suspension (XRPD); settings: for crystal form in oral suspension: XRPD
Procedure: The preparation of the oral suspension containing the crystal forms of the present invention.
API (selected from Crystal Form VI of Dabrafenib of the present invention): 2 g;
Blend API (selected from Crystal Form VI of Dabrafenib of the present invention), cocklebur gum, sodium dihydrogen citrate, methylparaben, syrupus simplex and orange flavor, add water to 1,000 mL and stir the mixture uniformly. After that, divide the solution into 100 bottles with 20 mg API in each bottle.

[4] = Crystal form stability in capsules prepared by wet granulation (XRPD); settings: for crystal form in capsules: capsules prepared by wet granulation process, XRPD
Excerpt: The preparation of the capsules containing the crystal forms of the present invention.
3) Blend API (selected from the Known Crystal Form 1, the Known Crystal Form 2 and Crystal Form VI of the present invention), microcrystalline cellulose (avicel) and sodium carboxymethyl starch (SSG) uniformly.
4) Make the above mixture into soft materials by using an appropriate amount of 50% aqueous ethanol solution, then screen to produce the wet granules.
5) Dry the wet granules, grind and disperse uniformly and then transfer them into the capsules.

[5] = Crystal form stability during wet granulation tablet preparation (XRPD); settings: for crystal form of API after physical blending with excipients: XRPD of Sample 1 vs Sample 3, lactose, microcrystalline cellulose, polyethylene glycol 6000; for crystal form of API in the wet granulation process: XRPD of Sample 2 vs Sample 1, 50% aqueous ethanol solution
Excerpt: The Known Crystal Form 1, the Known Crystal Form 2 and Crystal Form VI of the present invention are examined for their stability during the formulation preparation of the wet granulation process.
The preparation process of the tablet is a parallel experiment.
(1) Blend API (selected from the Known Crystal Form 1, the Known Crystal Form 2 or Crystal Form VI of the present invention), lactose (monohydrate) and microcrystalline cellulose uniformly.
(2) Make the above mixture into soft materials by using an appropriate amount of 50% aqueous ethanol solution, screen to produce the wet granules and then dry the wet granules.
(3) Granulate the dried sample, blend with polyethylene glycol 6000 uniformly and then compress into tablets.
Respectively, take XRPD tests on the following samples obtained in the formulation preparing process of the Known Crystal Form 1, the Known Crystal Form 2 and Crystal Form VI of the present invention: (Sample 1) the sample obtained by physically blending API, lactose, microcrystalline cellulose with polyethylene glycol 6000 according to the preparation formula; (Sample 2) the sample obtained by granulating with API, lactose, microcrystalline cellulose and polyethylene glycol 6000 according to the “wet granulation” process (excluding the sample obtained after the Step (3)); (Sample 3) excluding API, the sample obtained by physically blending lactose, microcrystalline cellulose with polyethylene glycol 6000 according to the preparation formula.

[6] = Crystal form stability on stirring in or exposure to water, aqueous ethanol or other solvent; settings: for crystal form stability when stirred: stirred in water or aqueous ethanol solution at room temperature or high temperature (40° C.); for crystal form stability in water: in water or other water containing system(s)
[7] = Crystal form stability during wet granulation tablet preparation (XRPD); settings: tablet prepared by wet granulation, stored 6 months at 40° C./75% RH
[8] = Competition test (suspension of equal amounts stirred overnight, XRPD); settings: for Competition test, comparison of stability (position in the rank order): in pure water, room temperature, stirred overnight
Excerpt: The competition test is: take equal amount of the samples, and respectively place them in isopropanol or in a mixture of water (pure water) and ethanol (wherein the volume percentage of ethanol is 0%, 20%, 50%, 80% and 100%, respectively) to form a suspension, stir it overnight at room temperature, then compare their XRPDs.

[9] = Thermogravimetric analysis (TGA), thermal stability; settings: for decomposition temperature: TGA, 10° C./min, dry N2; for stability at high temperature (in words): conclusion from DSC/TGA test results
Procedure: The thermogravimetric analysis (TGA) data are collected by TA Instruments Q500 TGA; the instrument control software is Thermal Advantage and the analysis software is Universal Analysis. Generally, take 5˜15 mg sample and place it in a platinum pan, adopt the segmental high-resolution testing mode, and under the protection of 50 mL/min dry N2, heat the sample from room temperature to 300° C. at the heating rate of 10° C./min, the weight changes of the sample during the course are recorded by TA software simultaneously.

[10] = Particle size distribution (PSD), laser diffraction; settings: for D10 / D50: dispersant water with 2% tween-80
Excerpt: The particle size distribution (PSD) plot is obtained using Microtrac S3500 laser diffraction particle size analyzer. The method parameters are as follows: flow velocity of the dispersant is 50%; the dispersant is water (added with 2% tween-80); the sample refractivity is 1.58; the laser source wavelength is 780 nm; and the integral mode is volume.
(§1) The morphology comparison is obtained by PLM testing of particle shape and PSD testing of particle size.

[11] = Polarized light microscopy (PLM) morphology
Excerpt: Polarized Light Microscope (PLM) plots are collected from XP-500E polarized light microscope (by Shanghai Changfang Optical Instrument Co., Ltd). Place a small amount of powder sample on a slide glass, drip some mineral oil to disperse the powder sample, place the cover slip, then place the sample on the loading table of XP-500E polarized light microscope, choose the appropriate magnitude to observe the morphology of the sample and take pictures thereof.
as §1

[12] = Flowability observed during the experiments

SMILES | hygroscopicity (in words) [1] | Storage stability (crystal form by XRPD) [2] | Storage stability (crystal form) [2] | crystal form in oral suspension [3] | crystal form in capsules [4] | crystal form of API after physical blending with excipients [5] | crystal form of API in the wet granulation process [5] | crystal form stability in the wet granulation process or in the suspension [5] | crystal form stability when stirred [6] | Competition test, comparison of stability (position in the rank order) [8] | decomposition temperature [9] | stability at high temperature (in words) [9] | D10 [10] | D50 [10] | Morphology (particle shape) [11] | crystal form stability in water [6] | further results
CC(C)(C)c1nc(-c2cccc(NS(=O)(=O)c3c(F)cccc3F)c2F)c(-c2ccnc(N)n2)s1 [Crystal Form VI, N-[3-[5-(2-aminopyrimidin-4-yl)-2-(tert-butyl)thiazo-4-lyl]-2-fluorophenyl]-2,6-difluorobenzenesulfonamide] | not hygroscopic; also recorded: low hygroscopicity; also recorded: lower than that of the Known Crystal Form 1 | its crystal form did not change | stable when stored for a long time | stable | stable | keeps unchanged | stable; also recorded: more stable than the Known Crystal Form 1 and the Known Crystal Form 2 | keeps its form unchanged | keeps its form unchanged | >The Known Crystal Form 1 | 271 °C | very stable at high temperature | 7 μm | 18 μm | fine crystals; also recorded: Fine particles |  | crystal form in oral suspension on storage ([3]; oral suspension stored 6 months at 40° C./75% RH): still stable; crystal form in capsules on storage ([4]; capsules stored 6 months at 40° C./75% RH): still stable; crystal form stability after tableting ([5]; tablet): stable after tableting; stability of tablet on storage [7]: still stable
CC(C)(C)c1nc(-c2cccc(NS(=O)(=O)c3c(F)cccc3F)c2F)c(-c2ccnc(N)n2)s1 [Known Crystal Form 2, N-[3-[5-(2-aminopyrimidin-4-yl)-2-(tert-butyl)thiazo-4-lyl]-2-fluorophenyl]-2,6-difluorobenzenesulfonamide, reference compound] |  |  |  | unstable and has converted to Crystal Form VI of the present invention | unstable and has converted to Crystal Form VI of the present invention | keeps unchanged | partially or totally converted to Crystal Form VI of the present invention | unstable | convert to Crystal Form VI of the present invention; also recorded: unstable | invention >The Known Crystal Form 2 |  |  |  |  | small block-shaped crystals | would convert to other form(s) | crystal form conversion in dichloromethane ([6]; stirring in dichloromethane followed by filtering and drying): can convert to the Known Crystal Form 1
CC(C)(C)c1nc(-c2cccc(NS(=O)(=O)c3c(F)cccc3F)c2F)c(-c2ccnc(N)n2)s1 [Known Crystal Form 3, N-[3-[5-(2-aminopyrimidin-4-yl)-2-(tert-butyl)thiazo-4-lyl]-2-fluorophenyl]-2,6-difluorobenzenesulfonamide, reference compound] |  |  |  |  |  |  |  |  |  |  |  |  |  |  |  | may convert to other form(s) | crystal form stability on standing ([2]; placed at room temperature): extremely unstable; also recorded: can convert to the Known Crystal Form 1; also recorded: converts to the Known Crystal Form 1
CC(C)(C)c1nc(-c2cccc(NS(=O)(=O)c3c(F)cccc3F)c2F)c(-c2ccnc(N)n2)s1 [Crystal Form VII, N-[3-[5-(2-aminopyrimidin-4-yl)-2-(tert-butyl)thiazo-4-lyl]-2-fluorophenyl]-2,6-difluorobenzenesulfonamide] | low hygroscopicity; also recorded: lower than that of the Known Crystal Form 1 | its crystal form does not change | stable when stored for a long time |  |  |  |  |  | convert to Crystal Form VI of the present invention | more stable than the Known Crystal Form 1; also recorded: >The Known Crystal Form 2 | 270 °C | very stable at high temperature | 91 μm | 207 μm | rod-shaped crystals; also recorded: good morphology; also recorded: rod-shaped particles in large size; also recorded: Rod shape |  | flowability [12]: good and good flowability; particle size compared with known crystal forms [10]: larger particle size than those of the Known Crystal Form 1 and the Known Crystal Form 2; also recorded: larger than that of the Known Crystal Form 1 and the Known Crystal Form 2
CC(C)(C)c1nc(-c2cccc(NS(=O)(=O)c3c(F)cccc3F)c2F)c(-c2ccnc(N)n2)s1 [Known Crystal Form 1, N-{3-[5-(2-amino-4-pyrimidinyl)-2-(1,1-dimethylethyl)-1,3-thiazol-4-yl]-2-fluorophenyl}-2,6-difluorobenzenesulfonamide, reference compound] | some hygroscopicity |  |  | unstable and has converted to Crystal Form VI of the present invention | unstable and has converted to Crystal Form VI of the present invention | keeps unchanged | partially or totally converted to Crystal Form VI of the present invention | unstable | convert to Crystal Form VI of the present invention; also recorded: unstable | >Crystal Form VII of the present |  |  |  |  | small block-shaped crystals | readily converts to other form(s) | Competition test, comparison of stability ([8]; in isopropanol or ethanol): Form 1 >The other three crystal forms.
